In one assay the target is T1, RARβ (Homo sapiens, UniProt P10826).
T1 sequence (P10826 183-417 limits assumed): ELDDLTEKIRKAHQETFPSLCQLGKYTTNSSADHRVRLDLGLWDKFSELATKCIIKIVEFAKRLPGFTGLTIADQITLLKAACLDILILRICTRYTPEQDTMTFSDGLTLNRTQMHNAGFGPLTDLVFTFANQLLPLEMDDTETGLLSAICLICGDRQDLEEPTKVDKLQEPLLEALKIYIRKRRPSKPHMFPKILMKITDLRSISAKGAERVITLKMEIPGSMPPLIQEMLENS
The assay is described as follows: chimeric receptor transactivation assay, RARβ. The format is cell-based. Conditions: for EC50: chimeric receptor transactivation, read-out: RAR Trans. EC50 β; for Emax: percentage compared to the standard compound, read-out: RAR Trans. efficacy (number in parentheses) β. The text has this: (§1) Specifically, one such assay is a chimeric receptor transactivation assay which tests for agonist-like activity in the R RAPE and RAR7 receptor subtypes, and which is based on work published by Feigner, P. L. and Holm, M (1989) Focus, 112 is described in detail in U.S. Pat. No. 5,455,265. The specification of U.S. Pat. No. 5,455,265 is hereby expressly incorporated by reference. A holoreceptor transactivation assay and a ligand binding assay which measure the antagonist/agonist like activity of the compounds of the invention, or their ability to bind to the several retinoid receptor subtypes, respectively, are described in published PCT Application No. WO WO93/11755 (particularly on pages 30-33 and 37-41) published on Jun. 24, 1993, the specification of which is also incorporated herein by reference. A detailed experimental procedure for holoreceptor transactivations has been described by Heyman et al. Cell 68, 397-406, (1992); Allegretto et al. J. Biol. Chem. 268, 26625-26633, and Mangelsdorf et al. The Retinoids: Biology, Chemistry and Medicine, pp 319-349, Raven Press Ltd., New York, which are expressly incorporated herein by reference. The results obtained in this assay are expressed in EC50 numbers, as they are also in the chimeric receptor transactivation assay. The results of the ligand binding assay are expressed in Ki numbers. (See Cheng et al. Biochemical Pharmacology Vol. 22 pp 3099-3108, expressly incorporated herein by reference.)
(§2) Efficacy in a transactivation assay is expressed as a percentage of the maximum potency attained by the compound compared to a standard which, in this case, is the compound named (2E,4E,1′S,2′S)-3-methyl-5-[2′-methyl-2′-(5,5,8,8-tetramethyl-5,6,7,8-tetrahydro-naphthalen-2-yl)-cyclopropyl]-penta-2,4-dienoic acid. This standard compound is described in U.S. Pat. No. 6,114,533.
(§3) The specification of this application for patent is organized in several sections in accordance with structural Formulas A through F each of which discloses a group of preferred compounds within the scope of the invention. Tables that disclose the activity of certain exemplary compounds of the invention in the above-described RXR receptor transactivation and binding assays are found in the corresponding sections. […] The transactivation data pertaining to the activation of RXR receptors were obtained in the holoreceptor assay.
(§4) Generally speaking, in the tables disclosing the results of transactivation and binding assays the numbers in parentheses indicate efficacy as a percentage compared to the standard compound, (2E,4E,1′S,2′S)-3-methyl-5-[2′-methyl-2′-(5,5,8,8-tetramethyl-5,6,7,8-tetrahydro-naphthalen-2-yl)cyclopropyl]-penta-2,4-dienoic acid and the other numbers indicate the measured EC50 and K; in nanomolar concentration.

Another assay addresses T2, RARγ (Homo sapiens, UniProt P13631).
T2 sequence (P13631 1-454): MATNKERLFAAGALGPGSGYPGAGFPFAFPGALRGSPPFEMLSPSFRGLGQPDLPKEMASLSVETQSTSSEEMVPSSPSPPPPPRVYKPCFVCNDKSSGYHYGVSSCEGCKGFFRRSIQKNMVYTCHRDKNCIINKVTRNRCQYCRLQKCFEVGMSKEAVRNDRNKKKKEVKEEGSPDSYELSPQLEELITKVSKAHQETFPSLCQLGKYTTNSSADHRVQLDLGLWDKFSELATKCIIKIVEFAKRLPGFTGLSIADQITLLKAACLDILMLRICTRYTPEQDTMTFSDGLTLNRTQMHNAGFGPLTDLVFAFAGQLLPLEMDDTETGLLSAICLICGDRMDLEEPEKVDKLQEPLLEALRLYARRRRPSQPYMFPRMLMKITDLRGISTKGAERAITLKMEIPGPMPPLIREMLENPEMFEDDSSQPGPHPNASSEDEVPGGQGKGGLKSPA
The assay is described as follows: ligand binding assay, RARγ. Conditions: for Ki: read-out: RAR Bind. Ki γ; for Kd: Table 9 (Formula F), read-out: RAR γ Kd. A digest of the protocol:
(§5)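 Binding of compounds to several retinoid receptor subtypes was measured. Results are given as Ki values in nanomolar concentration, derived per Cheng et al.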

A further assay deals with T3, RXRβ (UniProt P28704).
T3 sequence (P28704 1-520): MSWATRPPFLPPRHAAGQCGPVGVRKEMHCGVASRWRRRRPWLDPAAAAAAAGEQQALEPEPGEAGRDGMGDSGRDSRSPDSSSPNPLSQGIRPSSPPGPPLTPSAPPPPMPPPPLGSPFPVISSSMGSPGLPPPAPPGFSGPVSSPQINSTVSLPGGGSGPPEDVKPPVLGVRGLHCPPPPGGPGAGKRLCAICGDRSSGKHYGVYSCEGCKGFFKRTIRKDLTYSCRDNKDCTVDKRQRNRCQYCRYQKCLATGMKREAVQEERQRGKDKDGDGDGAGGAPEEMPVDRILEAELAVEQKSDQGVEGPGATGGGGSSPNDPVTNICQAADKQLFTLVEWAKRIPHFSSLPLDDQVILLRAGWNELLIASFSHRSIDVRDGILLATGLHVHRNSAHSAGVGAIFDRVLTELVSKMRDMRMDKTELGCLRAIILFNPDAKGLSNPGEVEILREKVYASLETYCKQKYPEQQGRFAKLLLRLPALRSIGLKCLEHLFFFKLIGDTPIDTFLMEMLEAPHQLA
The assay is described as follows: ligand binding assay, RXRβ. To be noted: for Ki: read-out: RXR Bind Ki β; for Kd: Table 9 (Formula F), read-out: RXR β Kd. A digest of the protocol: as §5

In a further assay the target is T4, RXRγ (UniProt P28705).
T4 sequence (P28705 1-463): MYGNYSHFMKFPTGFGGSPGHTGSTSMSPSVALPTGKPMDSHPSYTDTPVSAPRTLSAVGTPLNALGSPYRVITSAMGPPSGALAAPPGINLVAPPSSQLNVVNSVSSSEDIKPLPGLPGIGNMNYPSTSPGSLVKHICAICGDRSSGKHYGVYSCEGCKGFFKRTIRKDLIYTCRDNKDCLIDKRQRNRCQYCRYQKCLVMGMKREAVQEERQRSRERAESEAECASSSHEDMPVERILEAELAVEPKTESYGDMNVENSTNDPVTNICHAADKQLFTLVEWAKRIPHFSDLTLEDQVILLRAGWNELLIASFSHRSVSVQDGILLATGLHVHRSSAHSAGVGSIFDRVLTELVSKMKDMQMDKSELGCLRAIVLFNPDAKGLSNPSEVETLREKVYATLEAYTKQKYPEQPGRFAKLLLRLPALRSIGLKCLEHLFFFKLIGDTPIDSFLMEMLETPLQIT
The assay is described as follows: holoreceptor transactivation assay, RXRγ. It is filed as cell-based. To be noted: for EC50: holoreceptor transactivation, read-out: RXR Trans. EC50 γ; for RXR Trans. efficacy (number in parentheses) γ: percentage compared to the standard compound.
Description: as §1, §2, §3, §4

Each structure is given as a SMILES string. A value given as a limit tells only on which side of the number the result lay.

The record followed here is patent publication US6887896B1, “7-[(7-Alkoxy)-chrom-3-en-6-yl]-heptatrienoic acid and 7-[(3-alkoxy)-5,6-dihydronaphthalen-2-yl]-heptatrienoic acid derivatives having serum glucose reducing activity” (Allergan, Inc., priority 2003, dated 2005).

By EC50 is commonly meant the midpoint of the concentration-response curve. Usually Ki stands for the dissociation constant of the complex between target and ligand, obtained from inhibition or displacement. What is called Kd is the constant that tells how readily two partners part at equilibrium.

With `CCOc1cc2c(cc1\C(CC)=C(F)/C=C/C(C)=C/C(=O)O)C(C)=CC(C)(C)O2` [Compound 132, 7-(7-Ethoxy-2,2,4-trimethyl-2H-chromen-6-yl)-6-fluoro-3-methyl-nona-2E,4E,6E-trienoic acid], the EC50 is 710 nM at RARβ and greater than 1000 nM on RXRγ. Also, the Emax at RARβ is 8%. The Ki was found to be 2.4 µM at RARγ and 1100 nM at RXRβ.

In the case of `CCOc1c(\C(=C(F)/C=C/C(C)=C/C(=O)O)C(C)C)cc2c(c1Br)C(C)(C)CC=C2C(C)C` [Compound A-171, (2E,4E,6E)-7-(4-Bromo-3-ethoxy-8-isopropyl-5,5-dimethyl-5,6-dihydro-naphthalen-2-yl)-6-fluoro-3.8-dimethyl-nona-2.4,6-trienoic acid], the EC50 on RARβ and at RXRγ was 2 nM each time. For the same molecule, the Emax at RARβ amounted to 12%. For the same molecule, the Kd on RARγ turned out to be 272 nM; on RXRβ, 15 nM. The “RXR Trans. efficacy (number in parentheses) γ” value (shortened to “RXR Trans. efficacy”) on RXRγ is 16%.

Turning to `CCOc1cc2c(cc1\C(=C/C=C/C(C)=C/C(=O)O)CC)C(C)=CC(C)(C)O2` [Compound 46, 7-(7-Ethoxy-2,2,4-trimethyl-2H-chromen-6-yl)-3-methyl-nona-2E,4E,6Z-trienoic acid], the EC50 on RARβ was 305 nM; at RXRγ it was greater than 1000 nM. Moreover, at RARβ, the Emax is 6%. Also, the Ki at RARγ came to 3.4 µM; at RXRβ it was 1700 nM.

Take `CCOc1cc2c(cc1\C(C)=C(F)/C=C/C(C)=C/C(=O)O)C=CCC2(C)C` [Compound A-76, (2E,4E,6E)-7-(3-Ethoxy-5,5-dimethyl-5,6-dihydro-naphthalen-2-yl)-6-fluoro-3-methyl-octa-2,4.6-trienoic acid]: the EC50 is greater than 10000 nM at RARβ and 51 nM on RXRγ. In addition, the values for the Ki at RARγ and on RXRβ were 9.2 µM and 347 nM, respectively. The “RXR Trans. efficacy” value at RXRγ is recorded as 109%.

With `CCOc1cc2c(cc1\C(C)=C(F)/C=C/C(C)=C/C(=O)O)C(C(C)C)=CCC2(C)C` [Compound A-79, (2E,4E,6E)-6-Fluoro-3-(4,4-dimethylethoxy-1-isopropyl-3,4-dihydronaphthalen-7-yl)-3-methyl-2.4,6-octa-trienoic acid], on RARβ, the 50% effective concentration (EC50) amounted to 829 nM and the Emax was 62%. For the same molecule, at RARγ, the Ki amounted to 3.5 µM. Moreover, on RXRβ, the Ki was 13 nM. Further, on RXRγ, the EC50 came to 2 nM and the “RXR Trans. efficacy” value is 59%.

Take `CCOc1c(\C(CC)=C(F)/C=C/C(C)=C/C(=O)O)cc2c(c1Cl)C(C)(C)CC=C2C(C)C` [Compound A-178, (2E,4E,6E)-7-(4-Chloro-3-ethoxy-8-isopropyl-5,5-dimethyl-5,6-dihydronaphthalen-2-yl)-6-fluoro-3-methyl-nona-2,4,6-trienoic acid]: on RARβ, the EC50 is 9 nM and the Emax came out at 26%. In addition, the Kd at RARγ came to 449 nM. Also, on RXRβ, the Kd is 11 nM. Besides, on RXRγ, the EC50 amounted to 0.3 nM and the “RXR Trans. efficacy” value is 46%.

For `CC/C(=C(F)/C=C/C(C)=C/C(=O)O)c1cc2c(c(Cl)c1OC)OC(C)(C)C=C2C(C)C` [Compound 171, 7-(8-Chloro-4-isopropyl-7-methoxy-2,2-dimethyl-2H-chromen-6-yl)-6-fluoro-3-methyl-nona-2E,4E,6E-trienoic acid], on RARβ, the EC50 turned out to be 49 nM and the Emax is 13%. Besides, the Ki at RARγ amounted to 4.9 µM. The Ki at RXRβ was found to be 12 nM. At RXRγ, the EC50 is 0.04 nM and the “RXR Trans. efficacy” value was 95%.

Regarding `CCOc1cc2c(cc1\C(=C/C=C/C(C)=C/C(=O)O)CC)C(C(C)(C)C)=CCC2(C)C` [Compound A-18, 7-(8-tert-butyl-3-ethyoxy-5,5-dimethyl-5,6-dihydronaphthalen-2-yl)-3-methyl-nona-2E,4E,6Z-trienoic acid], at RARβ, the EC50 came out at 15 nM and the Emax was 7%. Moreover, the inhibition constant Ki at RARγ was found to be 0.537 µM. Further, the Ki on RXRβ was 31 nM. Besides, on RXRγ, the EC50 amounted to 2.7 nM and the “RXR Trans. efficacy” value stood at 11%.

`CC/C(=C/C=C/C(C)=C/C(=O)O)c1cc2c(cc1OC)OC(C)(C)C=C2C(C)C` [Compound 44, 7-(4-Isopropyl-7-methoxy-22-dimethyl-2H-chromen-6-yl)-3-methyl-nona-2E,4E,6Z-trienoic acid]: the EC50 on RARβ stood at 75 nM; at RXRγ, 0.4 nM. Further, the Emax on RARβ came to 25%. Also, the Ki is 3.5 µM on RARγ and 38 nM on RXRβ. The “RXR Trans. efficacy” value at RXRγ was 97%.

For `CCOc1cc2c(cc1\C(CC)=C(F)/C=C/C(C)=C/C(=O)O)C(CC)=CCC2(C)C` [Compound A-78, (2E,4E,6E)-7-(3-Ethoxy-8-ethyl-5,5-dimethyl-5,6-dihydro-naphthalen-2-yl)-6-fluoro-3-methyl-nona-2,4,6-trienoic acid], the half-maximal effective concentration (EC50) was 43 nM on RARβ and 4 nM on RXRγ. Besides, the Emax on RARβ is 68%. Further, the values for the Ki on RARγ and at RXRβ were 2.2 µM and 19 nM, respectively. Moreover, the “RXR Trans. efficacy” value at RXRγ is recorded as 11%.
